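Cells were grown in 96-well plates and exposed to each compound for 48 hours at five concentrations; endpoints were interpolated linearly between bracketing concentrations, or set to the highest concentration if not reached. TGI marks complete inhibition of growth.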
Tests used:
Assay in all cases: NCI anticancer screen, dose series, 48 h
RPMI-8226 leukemia = test system: RPMI-8226 leukemia
SN12C renal = test system: SN12C renal
786-0 renal = test system: 786-0 renal
SF-539 CNS = test system: SF-539 CNS
HCT-116 colon = test system: HCT-116 colon
A498 renal = test system: A498 renal
PC-3 prostate = test system: PC-3 prostate
M14 melanoma = test system: M14 melanoma
BT-549 breast = test system: BT-549 breast
SK-MEL-2 melanoma = test system: SK-MEL-2 melanoma
KM12 colon = test system: KM12 colon
SK-MEL-28 melanoma = test system: SK-MEL-28 melanoma
MCF7 breast = test system: MCF7 breast
NCI-H23 lung = test system: NCI-H23 lung
HCC-2998 colon = test system: HCC-2998 colon
SF-268 CNS = test system: SF-268 CNS
HS 578T breast = test system: HS 578T breast
K-562 leukemia = test system: K-562 leukemia
SK-MEL-5 melanoma = test system: SK-MEL-5 melanoma
OVCAR-4 ovarian = test system: OVCAR-4 ovarian
NCI-H460 lung = test system: NCI-H460 lung
NCI-H226 lung = test system: NCI-H226 lung
UACC-62 melanoma = test system: UACC-62 melanoma
OVCAR-5 ovarian = test system: OVCAR-5 ovarian
MALME-3M melanoma = test system: MALME-3M melanoma
SK-OV-3 ovarian = test system: SK-OV-3 ovarian
MOLT-4 leukemia = test system: MOLT-4 leukemia
HT29 colon = test system: HT29 colon
HOP-92 NSCLC = test system: HOP-92 NSCLC
SR leukemia = test system: SR leukemia
CAKI-1 renal = test system: CAKI-1 renal
SNB-75 CNS = test system: SNB-75 CNS
IGROV1 ovarian = test system: IGROV1 ovarian
DU-145 prostate = test system: DU-145 prostate
RXF 393 renal = test system: RXF 393 renal
MDA-N = test system: MDA-N
UO-31 renal = test system: UO-31 renal
U251 CNS = test system: U251 CNS
A549 NSCLC = test system: A549 NSCLC
COLO 205 colon = test system: COLO 205 colon
HOP-62 NSCLC = test system: HOP-62 NSCLC
OVCAR-8 ovarian = test system: OVCAR-8 ovarian
SF-295 CNS = test system: SF-295 CNS
NCI/ADR-RES ovarian = test system: NCI/ADR-RES ovarian
ACHN renal = test system: ACHN renal
MDA-MB-231 breast = test system: MDA-MB-231 breast
TK-10 renal = test system: TK-10 renal
EKVX NSCLC = test system: EKVX NSCLC
SNB-19 CNS = test system: SNB-19 CNS
OVCAR-3 ovarian = test system: OVCAR-3 ovarian
CCRF-CEM leukemia = test system: CCRF-CEM leukemia
HL-60(TB) leukemia = test system: HL-60(TB) leukemia
HCT-15 colon = test system: HCT-15 colon
UACC-257 melanoma = test system: UACC-257 melanoma
LOX IMVI melanoma = test system: LOX IMVI melanoma
NCI-H522 lung = test system: NCI-H522 lung
MDA-MB-435 = test system: MDA-MB-435
T-47D breast = test system: T-47D breast
SW-620 colon = test system: SW-620 colon

## COC(=O)[C@@]12OC[C@]34[C@H]([C@@H](O)[C@@H]1O)[C@@]1(C)CC(=O)C(OC(C)=O)=C(C)[C@@H]1C[C@H]3OC(=O)[C@H](OC(=O)C=C(C)C)[C@@H]24
RPMI-8226 leukemia
  TGI: 3.21 µM
SN12C renal
  TGI: 4.52 µM
786-0 renal
  TGI: 3.19 µM
SF-539 CNS
  TGI: 1.82 µM
HCT-116 colon
  TGI: 2 µM
A498 renal
  TGI: 1.78 µM
PC-3 prostate
  TGI: 4.01 µM
M14 melanoma
  TGI: 2.63 µM
BT-549 breast
  TGI: 5.27 µM
SK-MEL-2 melanoma
  TGI: 2.79 µM
KM12 colon
  TGI: 4.18 µM
SK-MEL-28 melanoma
  TGI: 2.67 µM
MCF7 breast
  TGI: 2.99 µM
NCI-H23 lung
  TGI: 2.2 µM
HCC-2998 colon
  TGI: 0.716 µM
SF-268 CNS
  TGI: 3.05 µM
HS 578T breast
  TGI: 3.32 µM
K-562 leukemia
  TGI: 9.7 µM
SK-MEL-5 melanoma
  TGI: 1.33 µM
OVCAR-4 ovarian
  TGI: 4.05 µM
NCI-H460 lung
  TGI: 1.38 µM
NCI-H226 lung
  TGI: 3.94 µM
UACC-62 melanoma
  TGI: 3.16 µM
OVCAR-5 ovarian
  TGI: 6.79 µM
MALME-3M melanoma
  TGI: 1.2 µM
SK-OV-3 ovarian
  TGI: 1.78 µM
MOLT-4 leukemia
  TGI: 4.23 µM
HT29 colon
  TGI: 58.3 µM
HOP-92 NSCLC
  TGI: 4.04 µM
SR leukemia
  TGI: 2.07 µM
CAKI-1 renal
  TGI: 10.8 µM
SNB-75 CNS
  TGI: 4.45 µM
IGROV1 ovarian
  TGI: 2.59 µM
DU-145 prostate
  TGI: 6.37 µM
RXF 393 renal
  TGI: 3.41 µM
MDA-N
  TGI: 3.2 µM
UO-31 renal
  TGI: 14.5 µM
U251 CNS
  TGI: 3.26 µM
A549 NSCLC
  TGI: 4.92 µM
COLO 205 colon
  TGI: 2.79 µM
HOP-62 NSCLC
  TGI: 2.86 µM
OVCAR-8 ovarian
  TGI: 2.54 µM
SF-295 CNS
  TGI: 3 µM
NCI/ADR-RES ovarian
  TGI: 57.4 µM
ACHN renal
  TGI: 10.8 µM
MDA-MB-231 breast
  TGI: 5.8 µM
TK-10 renal
  TGI: 4.75 µM
EKVX NSCLC
  TGI: 5.38 µM
SNB-19 CNS
  TGI: 77.8 µM
OVCAR-3 ovarian
  TGI: 1.01 µM
CCRF-CEM leukemia
  TGI: 3.83 µM
HL-60(TB) leukemia
  TGI: 1.65 µM
HCT-15 colon
  TGI: 7.46 µM
UACC-257 melanoma
  TGI: 2.28 µM
LOX IMVI melanoma
  TGI: 0.981 µM
NCI-H522 lung
  TGI: 1.49 µM
MDA-MB-435
  TGI: 3.45 µM
T-47D breast
  TGI: 5.93 µM

## Cc1cc2c(cc1C)N1C(Cl)=C3CCCCC3=C(C#N)C1N2 (stereo unspecified)
RPMI-8226 leukemia
  TGI: > 100 µM
SN12C renal
  TGI: 14.7 µM
786-0 renal
  TGI: 3.61 µM
SF-539 CNS
  TGI: 41.6 µM
A498 renal
  TGI: 33.8 µM
PC-3 prostate
  TGI: 27.3 µM
M14 melanoma
  TGI: 21.2 µM
BT-549 breast
  TGI: 8.46 µM
SK-MEL-2 melanoma
  TGI: 29.2 µM
KM12 colon
  TGI: 24 µM
SK-MEL-28 melanoma
  TGI: 10.6 µM
MCF7 breast
  TGI: 21.6 µM
NCI-H23 lung
  TGI: 14.2 µM
HCC-2998 colon
  TGI: 22.4 µM
SF-268 CNS
  TGI: 60.4 µM
HS 578T breast
  TGI: > 100 µM
K-562 leukemia
  TGI: > 100 µM
SK-MEL-5 melanoma
  TGI: > 32.8 µM
OVCAR-4 ovarian
  TGI: 31.7 µM
NCI-H460 lung
  TGI: 51.8 µM
NCI-H226 lung
  TGI: 30.5 µM
UACC-62 melanoma
  TGI: 7.63 µM
OVCAR-5 ovarian
  TGI: 36 µM
MALME-3M melanoma
  TGI: 34.6 µM
SK-OV-3 ovarian
  TGI: 39.6 µM
MOLT-4 leukemia
  TGI: > 42.9 µM
HT29 colon
  TGI: 6.94 µM
HOP-92 NSCLC
  TGI: > 30.4 µM
SR leukemia
  TGI: > 100 µM
CAKI-1 renal
  TGI: 12.3 µM
SNB-75 CNS
  TGI: 56.9 µM
IGROV1 ovarian
  TGI: 28.3 µM
DU-145 prostate
  TGI: 36.4 µM
RXF 393 renal
  TGI: 29 µM
MDA-N
  TGI: 15.1 µM
UO-31 renal
  TGI: 17.7 µM
U251 CNS
  TGI: 24.6 µM
A549 NSCLC
  TGI: 45.8 µM
SW-620 colon
  TGI: 4.39 µM
COLO 205 colon
  TGI: 33.9 µM
HOP-62 NSCLC
  TGI: 30.1 µM
OVCAR-8 ovarian
  TGI: 32.9 µM
SF-295 CNS
  TGI: 42.4 µM
NCI/ADR-RES ovarian
  TGI: 14.5 µM
ACHN renal
  TGI: 10.5 µM
MDA-MB-231 breast
  TGI: 30.1 µM
TK-10 renal
  TGI: 18.6 µM
EKVX NSCLC
  TGI: 41.2 µM
SNB-19 CNS
  TGI: 45.3 µM
OVCAR-3 ovarian
  TGI: 30.5 µM
CCRF-CEM leukemia
  TGI: > 23.2 µM
HL-60(TB) leukemia
  TGI: > 100 µM
HCT-15 colon
  TGI: 7.76 µM
UACC-257 melanoma
  TGI: 22.3 µM
LOX IMVI melanoma
  TGI: 4.37 µM
NCI-H522 lung
  TGI: 3.91 µM
MDA-MB-435
  TGI: > 33.1 µM
T-47D breast
  TGI: 28.3 µM

From PubChem BioAssay (NCI)
